According to BigSolDB 2.1:

COC(=O)c1cccc(C(=O)OC)n1
solubility (mole fraction)
Conditions | 278.15 K | 283.15 K | 288.15 K | 293.15 K | 298.15 K | 303.15 K | 308.15 K | 313.15 K | 318.15 K | 323.15 K
in DMSO | – | – | – | 0.0174 | 0.0205 | 0.0271 | 0.0323 | 0.0435 | 0.0503 | 0.0658
in THF | 0.00553 | 0.00773 | 0.00891 | 0.0115 | 0.0138 | 0.0166 | 0.0219 | 0.0293 | 0.0373 | 0.046
in ethanol | 0.00042 | 0.00068 | 0.00103 | 0.00147 | 0.00215 | 0.00323 | 0.00436 | 0.00576 | 0.00757 | 0.0101
in ethyl acetate | 0.00335 | 0.00364 | 0.00549 | 0.0082 | 0.0105 | 0.0149 | 0.019 | 0.0261 | 0.0326 | –
in isopentyl acetate | 0.00146 | 0.00192 | 0.00252 | 0.00334 | 0.00438 | 0.00576 | 0.00729 | 0.00944 | 0.0158 | 0.0216
in isopropanol | 0.00032 | 0.00049 | 0.00071 | 0.00116 | 0.0017 | 0.0022 | 0.0032 | 0.00414 | 0.00579 | 0.00785
in isopropyl acetate | 0.00191 | 0.00235 | 0.00343 | 0.00516 | 0.00721 | 0.0094 | 0.0117 | 0.0161 | 0.0202 | 0.0262
in methanol | 0.00057 | 0.00092 | 0.00142 | 0.00199 | 0.00283 | 0.00425 | 0.0055 | 0.0075 | 0.00974 | 0.012
in methyl acetate | 0.00524 | 0.00759 | 0.0118 | 0.0145 | 0.0201 | 0.0255 | 0.0312 | 0.041 | 0.0489 | 0.0635
in n-butyl acetate | 0.0015 | 0.00203 | 0.00286 | 0.00462 | 0.00671 | 0.00883 | 0.0113 | 0.0158 | 0.0201 | 0.026
in n-pentyl acetate | – | 0.0027 | 0.0038 | 0.00459 | 0.00625 | 0.00851 | 0.0111 | 0.015 | 0.0189 | 0.0243
in n-propanol | 0.00032 | 0.0005 | 0.00078 | 0.0011 | 0.00171 | 0.00228 | 0.00357 | 0.00476 | 0.00621 | 0.00839
